Source: ChEMBL document CHEMBL1201862, “PubChem BioAssay data set” (2004)
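Interpolation was linear, between the two tested concentrations surrounding the appropriate level; five concentrations were tested over 48 hours in 96-well plates. GI50 is the concentration that inhibits growth by half.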 Calls of active or inactive are those of the source. Rule as the data show it: active = GI50 up to about 1.1 µM and inactive = higher.

Legend:
Assay in all cases: NCI-60 cell line screen, 48 h
[1] = test system: SNB-19
[2] = test system: COLO 205
[3] = test system: OVCAR-5
[4] = test system: SF-539
[5] = test system: DMS-114
[6] = test system: DMS-273
[7] = test system: K562
[8] = test system: KM12
[9] = test system: HT-29
[10] = test system: U-251
[11] = test system: CCRF-CEM
[12] = test system: HOP-92
[13] = test system: SK-MEL-5
[14] = test system: SW-620
[15] = test system: MDA-MB-435
[16] = test system: PC-3
[17] = test system: DU-145
[18] = test system: NCI/ADR-RES
[19] = test system: T47D
[20] = test system: MDA-N

Measured: GI50

COc1cc(C=C2C(=O)OC(C)(C)OC2=O)cc(OC)c1OC
inactive: [1] > 100 µM | [2] > 100 µM | [3] > 100 µM | [4] > 100 µM | [5] > 100 µM | [6] > 100 µM | [7] > 100 µM | [8] > 100 µM | [9] > 100 µM | [10] > 100 µM | [11] > 100 µM | [12] > 100 µM | [13] > 100 µM | [14] > 100 µM

CC(C)=CC1(C)/C(=N\O)C(C)(CC(C)C)C(=O)N1O (stereo not given)
inactive: [1] > 100 µM | [2] > 100 µM | [3] > 100 µM | [4] > 100 µM | [5] > 100 µM | [6] > 100 µM | [7] > 100 µM | [8] > 100 µM | [9] > 100 µM | [10] > 100 µM | [11] > 100 µM | [12] > 100 µM | [13] > 100 µM | [14] > 100 µM

O=C(c1nc2ccc(Cl)cc2[nH]c1=O)C(O)c1cccc([N+](=O)[O-])c1 (stereo not given)
inactive: [1] > 100 µM | [2] > 100 µM | [3] > 100 µM | [4] > 100 µM | [5] 5.98 µM | [6] > 100 µM | [7] 28.6 µM | [8] 57 µM | [9] 16.3 µM | [10] > 100 µM | [11] 5.06 µM | [12] > 100 µM | [13] 48.6 µM

COC(=O)C(Cl)=C1CC1
inactive: [1] > 100 µM | [2] 19.9 µM | [3] > 100 µM | [4] 27.2 µM | [5] 31 µM | [6] 31.6 µM | [7] 22.3 µM | [8] 37 µM | [9] 34.2 µM | [11] 14.3 µM | [12] 13.3 µM | [13] 28.5 µM | [14] 18.3 µM

ClC(Cl)=C(Cl)C1(Cl)CC1COCc1ccccc1 (stereo not given)
inactive: [1] 36.9 µM | [2] 25.2 µM | [3] 32.6 µM | [4] 51.6 µM | [5] 20.7 µM | [6] 42.8 µM | [7] 30.2 µM | [8] 35 µM | [9] 24.8 µM | [11] 22.3 µM | [12] 15.3 µM | [13] 15.8 µM | [14] 30.9 µM

CC1C(c2ccccc2)N(C)C(c2ccccc2)C(C)C1(O)c1ccccc1 (stereo not given)
inactive: [1] > 100 µM | [2] 20 µM | [3] > 100 µM | [4] > 100 µM | [5] > 100 µM | [6] 40.7 µM | [7] > 100 µM | [8] 77.8 µM | [9] 55.8 µM | [10] > 100 µM | [11] > 100 µM | [12] 83.9 µM | [13] > 100 µM | [14] 54 µM

COc1cc2c(cc1OCc1ccccc1)CNCC2
inactive: [1] > 100 µM | [2] > 100 µM | [3] > 100 µM | [4] > 100 µM | [5] > 100 µM | [6] > 100 µM | [7] > 100 µM | [8] > 100 µM | [9] > 100 µM | [10] > 100 µM | [11] > 100 µM | [12] 23.6 µM | [13] > 100 µM | [14] 24.3 µM

COc1ccc(C(=O)/C=C/c2ccc(OCC(=O)N3CCN(c4ccccc4)CC3)cc2)cc1
inactive: [1] 27.9 µM | [2] > 64.6 µM | [15] > 100 µM | [3] > 100 µM | [4] 18.9 µM | [16] 45.5 µM | [17] > 100 µM | [5] > 90.6 µM | [18] 43.2 µM | [6] 29.8 µM | [7] > 60.5 µM | [8] > 76.4 µM | [9] > 100 µM | [10] 28.4 µM | [11] > 35.6 µM | [19] 35.6 µM | [12] 14.2 µM | [13] 59.6 µM | [20] > 100 µM | [14] 72.4 µM

Cc1cc(Cl)ccc1NC(=O)C1C(=O)N(c2ccc(Cl)cc2C)C(=O)/C1=N\NC(N)=S (stereo not given)
inactive: [1] 37.3 µM | [2] 32.1 µM | [3] 24.3 µM | [4] 26.1 µM | [5] 31.6 µM | [6] 46.3 µM | [7] 23.6 µM | [8] 32.9 µM | [9] 18.7 µM | [10] 19.6 µM | [11] 22.5 µM | [12] 23.7 µM | [13] 32.7 µM | [14] 29.7 µM

CC(=O)NC1=C(N)C(=O)c2ccccc2C1=O
inactive: [1] > 100 µM | [2] 30.5 µM | [3] > 100 µM | [4] > 100 µM | [5] 14.8 µM | [6] > 100 µM | [7] 57.5 µM | [8] > 100 µM | [9] 65.8 µM | [10] 56.5 µM | [11] 47.1 µM | [12] > 100 µM | [13] 30.6 µM | [14] 14.9 µM

COc1ccc(NC(=O)CC(=O)N2N=C(N(CCC#N)c3ccccc3Cl)CC2c2ccccc2)cc1 (stereo not given)
inactive: [1] > 100 µM | [2] > 100 µM | [3] > 100 µM | [4] > 100 µM | [5] > 100 µM | [6] > 100 µM | [7] > 100 µM | [8] > 100 µM | [9] > 100 µM | [10] > 100 µM | [11] > 100 µM | [12] > 100 µM | [13] > 100 µM | [14] > 100 µM

Cn1cnc([N+](=O)[O-])c1Sc1nnc(C(F)(F)F)n1C
inactive: [1] > 100 µM | [2] 14.6 µM | [3] > 100 µM | [4] 20.5 µM | [5] 34.6 µM | [6] 25.6 µM | [7] 23.4 µM | [8] > 100 µM | [9] 35.7 µM | [10] 17.1 µM | [11] 18.5 µM | [12] 16 µM | [13] 32.6 µM | [14] 18.6 µM

O=C(c1cccs1)N(C(=S)N1CCN(c2ccccn2)CC1)c1ccccc1
inactive: [1] > 100 µM | [2] > 100 µM | [3] > 100 µM | [4] > 100 µM | [5] 53 µM | [6] 82.8 µM | [7] > 100 µM | [8] > 100 µM | [9] > 100 µM | [10] > 100 µM | [11] > 100 µM | [12] > 100 µM | [13] 41.6 µM | [14] > 100 µM
